PMC8780828 (Viruses, 2021)
pIC50: −log10 of the molar value.

Key:
[1] = biological target: SARS-CoV-2 spike S1 subunit protein (Severe acute respiratory syndrome coronavirus 2, UniProt P0DTC2); assay type: binding
[2] = biological target: CYP1A2 (Homo sapiens, UniProt P05177); assay: biochemical
[3] = biological target: malate dehydrogenase (MDH); assay type: biochemical
[4] = biological target: CYP2C19 (Homo sapiens, UniProt P33261); assay: biochemical
[5] = biological target: CYP2C8 (Homo sapiens, UniProt P10632); assay: in vitro; conditions: microsomes, pH 7.4
[6] = tested on: SARS-CoV-2 (US_WA-1/2020); assay type: cell-based
[7] = biological target: T1, CYP2B6 (Homo sapiens, UniProt P20813); assay: biochemical
[8] = tested on: pseudovirus NL4-3ΔEnv-NanoLuc/SARS-CoV-2; assay: SARS-CoV-2 pseudovirus assay with pre-treated 293T/ACE2 cells; assay type: cell-based; conditions: 293T/ACE2 cells pre-treated with compound 30 min before infection
[9] = biological target: T1, CYP2B6; assay: in vitro; conditions: microsomes, pH 7.4

Chain of CYP2C8 (P10632 whole entry): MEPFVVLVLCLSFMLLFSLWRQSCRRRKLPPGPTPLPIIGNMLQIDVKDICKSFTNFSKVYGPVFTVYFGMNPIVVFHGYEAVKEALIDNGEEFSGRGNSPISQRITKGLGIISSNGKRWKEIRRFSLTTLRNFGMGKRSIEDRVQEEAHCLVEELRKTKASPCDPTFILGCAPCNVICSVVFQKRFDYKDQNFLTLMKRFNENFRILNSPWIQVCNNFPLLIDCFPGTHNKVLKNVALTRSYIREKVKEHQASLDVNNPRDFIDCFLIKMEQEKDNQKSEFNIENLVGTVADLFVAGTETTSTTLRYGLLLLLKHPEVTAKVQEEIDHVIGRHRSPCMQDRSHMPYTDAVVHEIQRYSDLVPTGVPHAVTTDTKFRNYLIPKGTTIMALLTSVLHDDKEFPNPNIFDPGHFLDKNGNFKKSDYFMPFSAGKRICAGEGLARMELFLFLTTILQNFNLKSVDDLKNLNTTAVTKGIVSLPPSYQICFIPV
T1 sequence (P20813 whole entry): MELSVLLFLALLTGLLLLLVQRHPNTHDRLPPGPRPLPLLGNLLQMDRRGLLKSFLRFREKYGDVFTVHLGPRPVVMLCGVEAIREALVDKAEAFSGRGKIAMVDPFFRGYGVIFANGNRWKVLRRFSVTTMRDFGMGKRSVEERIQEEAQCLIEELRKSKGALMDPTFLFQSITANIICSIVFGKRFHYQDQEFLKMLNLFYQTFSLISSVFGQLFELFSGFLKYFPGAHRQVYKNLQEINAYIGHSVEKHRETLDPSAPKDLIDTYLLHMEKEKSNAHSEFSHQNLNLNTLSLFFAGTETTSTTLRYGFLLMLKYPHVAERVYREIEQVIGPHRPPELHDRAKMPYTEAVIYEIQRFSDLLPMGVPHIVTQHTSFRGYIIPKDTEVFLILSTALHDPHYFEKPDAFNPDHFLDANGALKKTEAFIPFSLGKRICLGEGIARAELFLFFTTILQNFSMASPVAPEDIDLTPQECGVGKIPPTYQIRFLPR
Chain of CYP1A2 (P05177 whole entry): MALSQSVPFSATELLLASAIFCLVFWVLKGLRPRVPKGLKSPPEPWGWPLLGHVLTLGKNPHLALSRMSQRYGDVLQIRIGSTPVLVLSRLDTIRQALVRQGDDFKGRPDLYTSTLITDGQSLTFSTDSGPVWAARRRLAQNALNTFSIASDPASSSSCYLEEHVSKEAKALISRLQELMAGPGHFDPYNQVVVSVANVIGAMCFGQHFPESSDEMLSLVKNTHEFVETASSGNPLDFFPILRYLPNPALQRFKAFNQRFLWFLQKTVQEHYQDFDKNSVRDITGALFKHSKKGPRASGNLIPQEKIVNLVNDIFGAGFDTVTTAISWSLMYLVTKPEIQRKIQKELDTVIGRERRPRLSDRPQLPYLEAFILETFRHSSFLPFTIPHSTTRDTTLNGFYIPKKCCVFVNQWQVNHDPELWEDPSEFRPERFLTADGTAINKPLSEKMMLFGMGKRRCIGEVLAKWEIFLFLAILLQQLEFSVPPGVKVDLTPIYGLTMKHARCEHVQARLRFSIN
Chain of CYP2C19 (P33261 whole entry): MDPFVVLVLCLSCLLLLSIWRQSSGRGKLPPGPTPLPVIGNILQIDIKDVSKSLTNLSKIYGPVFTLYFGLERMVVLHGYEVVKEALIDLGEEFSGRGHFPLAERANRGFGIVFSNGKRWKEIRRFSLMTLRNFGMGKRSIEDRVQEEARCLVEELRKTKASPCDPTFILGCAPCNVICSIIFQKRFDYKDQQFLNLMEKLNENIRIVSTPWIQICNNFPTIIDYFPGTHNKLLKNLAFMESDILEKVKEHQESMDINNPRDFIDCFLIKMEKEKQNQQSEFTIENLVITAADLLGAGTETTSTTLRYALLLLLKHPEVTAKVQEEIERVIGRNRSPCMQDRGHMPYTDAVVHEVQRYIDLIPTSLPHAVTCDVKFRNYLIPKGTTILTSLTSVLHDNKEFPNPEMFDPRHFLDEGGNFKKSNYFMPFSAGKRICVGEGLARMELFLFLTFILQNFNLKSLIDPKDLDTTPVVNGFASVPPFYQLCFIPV

With `O=C(O)c1cc(-c2ccc(/C=C3\SC(=S)N(CCc4ccccc4)C3=O)o2)ccc1Cl` [NBCoV1] the kd [1] was 0.0257 s⁻¹, the pIC50 [2] was 5.13 and the pIC50 [3] was less than 5.70. It also gave a pIC50 [4] of 5.14, an activity at 0.0137 µM [5] of 102% and an activity at 0.0412 µM [5] of 89%. For the same molecule, the activity at 0.123 µM [5] was 98.3%, the activity at 1.11 µM [5] was 76.9% and the activity at 3.33 µM [5] was 25.3%. For the same molecule, the activity at 10 µM [5] was 3.87%, the IC100 [6] was greater than 10 µM and the pIC50 [7] was 5.50. For the same molecule, the pIC50 [8] was less than 5.70, the activity at 0.0137 µM [9] was 97.5% and the activity at 0.0412 µM [9] was 98.1%. The activity at 0.123 µM [9] was 90.4%, the activity at 0.37 µM [9] was 94.2% and the activity at 1.11 µM [9] was 76.9%. For the same molecule, the activity at 3.33 µM [9] was 47% and the activity at 10 µM [9] was 15.2%.
